Tests used:
[1] = system: CD4; chemokine receptors; experiment: CD4 expression and antibody-mediated internalization of chemokine receptors; format: cell-based; settings: treatment of the virus or cells
[2] = system: treated cells
[3] = system: Jurkat cells
[4] = system: LFA-1; experiment: SDF-1-induced binding of cells to ICAM-1 through LFA-1; format: cell-based; settings: cholesterol-depleted cells
Source text: (§1) As described above, budding of HIV-1 particles occurs at lipid rafts, which are characterized by a distinct lipid composition that includes high concentrations of cholesterol, sphingolipids, and glycolipids. Since cholesterol plays a key role in the entry of some other viruses, the role in HIV-1 entry of cholesterol and lipid rafts in the plasma membrane of susceptible cells was investigated. […] A β-CD derivative, 2-hydroxypropyl-β-cyclodextrin (2-OH-β-CD), was used to deplete cellular cholesterol and disperse lipid rafts. As disclosed herein, removal of cellular cholesterol rendered primary cells and cell lines highly resistant to HIV-1-mediated syncytium formation and to infection by both CXCR4- and CCR5-specific strains of HIV-1 virus. […] Cholesterol depletion also made cells resistant to SDF-1-induced binding to ICAM-1 through LFA-1.

[5] = system: HIV-1; experiment: Infection of primary cells and cell lines by HIV-1 strains; format: cell-based; settings: primary cells and cell lines treated
[6] = system: CD4+ HIV-susceptible target cells; experiment: Depletion of total cellular cholesterol by 2-OH-β-CD treatment; format: cell-based; settings: 10 to 20 mM for 1 hour at 37° C., then washing
Source text: The role of lipid rafts in the HIV-1 fusion process was examined by treating CD4+ HIV-susceptible target cells with 2-OH-β-CD to deplete membrane cholesterol and disperse lipid rafts.

[7] = system: HIV-1; experiment: HIV-1-mediated syncytium formation; format: cell-based; settings: treatment of target cells
[8] = system: HIV-1; experiment: HIV-1 binding to cells; format: cell-based; settings: treatment of the virus or cells
Source text: as §1

[9] = system: HIV-1; experiment: Capture of HIV-1 by MAbs against host and viral proteins, measured as percentage of total p24; format: cell-based
Source text: By removing cholesterol, 2-OH-β-CD is believed to partially perturb organized lipid rafts, resulting in dispersal of their components (Ilangumaran and Hoessli, Biochem. J. 335:433-440, 1998).

[10] = after treating cells, percentage of total p24

Substance: 2-hydroxypropyl-β-cyclodextrin [2-OH-β-CD]
- CD4 expression [1]: no effect
- antibody-mediated internalization of chemokine receptors [1]: highly sensitive
- cell growth after treatment [2]: continued to grow normally
- Ca2+ flux responses to anti-CD3 MAb [3]: still showed Ca^2+ flux responses
- SDF-1-induced binding to ICAM-1 through LFA-1 [4]: resistant
- infection by CXCR4-specific and CCR5-specific HIV-1 strains [5]: rendered resistant
- depletion of total cellular cholesterol [6]: greater than 70%
- syncytium formation of primary cells and cell lines [7]: blocked syncytium formation
- HIV-1 binding [8]: partially reduced
- CD45 capture of HIV-1 ([9]; after treating cells): remained unaffected
- capture of HIV-1 by MAb against CD59 [9, 10]: decreased substantially
- capture of HIV-1 by MAb against gp41 [9, 10]: decreased substantially
- overall cellular release of p24 ([9]; after treatment): increased

— patent US20080213863A1, “Method of Controlling Viral Outbreak” (priority 2003, published 2008)
